These results are taken from patent publication US6740678B2, “Method of treatment of cardiovascular injuries” (Children's Medical Center Corporation, priority 1998, dated 2004).

Data set [1] concerns Apo E-/-mice. The data set is described as follows: Plaque area at the aortic origin in cholesterol-fed Apo E-/- mice. Particulars: for Plaque measurements at the aortic origin versus control: early-stage experiment, treated age 6 to 22 weeks, not shown; for Inhibition of plaque growth: age 20 to 36 weeks, [100][1-(median treated-0.25)/(median control-0.25)]. Type of data set: in vivo. An excerpt:
Male Apo E-/-mice (Jackson Labs, Bangor Me.) were fed a 0.15% cholesterol diet (Western Type #88137, Teklad) from age 6-8 weeks. At 20 weeks of age, ten animals were sacrificed to evaluate the baseline extent of atherosclerosis.
(§1) After 16 weeks of treatment, animals were euthanized with methoxyflurane. A blood sample was obtained from the right ventricle for the analysis of serum cholesterol, performed by an automated calorimetric assay on a Hitachi 917 instrument (Children's Hospital, Boston, Mass.). The heart and aorta were perfusion-fixed with 2% paraformaldehyde and dissected as described (Palinski, W., et al., Arterioscler. Thromb. 14: 605-16, 1994; Tangirala, R. K., et al., J. Lipid Res. 36:2320-8, 1995). Atherosclerotic plaques in the aortas were used for histology and plaque areas were only determined at the aortic origin (Paigen, B., et al., Artherosclerosis 68: 231-40, 1987). However, to document the extent of disease in the total aorta, the unopened aortas were photographed.
(§2) The effects of these angiogenesis inhibitors on late stage lesions were then compared to their effects on early lesions, in which intimal vessels were rarely observed. Animals were treated with endostatin or TNP-470 from age 32 to 48 weeks (late-stage experiment) or from 6 to 22 weeks (early-stage experiment). Plaque involvement was measured at the aortic origin. Since the aortas from early stage animals were not used for immunohistochemistry in these experiments, the extent of atherosclerosis was also measured in the entire aorta (percent surface area of Sudan IV stained-lesions; Paliniski, W., et al., Arteriosclr. Thromb. 14: 605-16, 1994).
(§3) The Apo E-/-mice received 20 mg/kg of endostatin subcutaneously every day.
The fumagillin analogue TNP-470 was provided for these studies by TAP Holdings, Deerfield Ill. An injection solution of TNP-470 (3 mg/ml) was freshly prepared and mice received 30 mg/kg subcutaneously every other day. Control animals received a similar volume of saline or endostatin buffer.
(§4) Plaque Area. To determine the extent of atherosclerosis at the aortic origin, 40 serial sections (8-10 Tm thickness) of the aortic sinus were collected on 10 slides (Paigen, B., et al., Artherosclerosis 68: 231-40, 1987). Every second slide was stained with hematoxylin and eosin for morphometry. The rest were used for immunohistochemistry to count intimal vessels and determine intimal smooth muscle cell contents. Plaque images were captured at 100× magnification with a Hitachi HV-C20 3CCD digital camera and measured with the Leica Q500MC image analysis program (Dong, Z. M., et al., J. Clin. Invest. 102: 145-52, 1998). Lesion area for each animal was reported as the mean intimal cross-sectional area (mm^2). In the early-stage experiment, plaque involvement in the entire aorta was also measured by image analysis as the percentage of aortic surface area covered with lesions (Tangiala, R. K., et al., J. Lipid. Res. 36: 2320-8, 1995; Dong, Z. M., et al., J. Clin. Invest. 102: 145-52, 1998)

A short description of data set [2]: Animal health, weight and tolerability during treatment. It counts as in vivo, mice. As for the experimental part:
Animal health and weight was monitored throughout treatment.
as §3

Data set [3] deals with Apo E-/-mice. Kind of data set: Extent of atherosclerosis in the entire aorta (Sudan IV stained lesions, photographed aortas). Type of data set: in vivo. Particulars: for Median percent plaque area of the entire aorta (Sudan IV-positive lesions): early-stage experiment, treated age 6 to 22 weeks, control 14.4%; for Plaque surface area on photographed images of the entire aorta: treated 20 to 36 weeks, not shown.
Description: as §1, §2, §4

The test system of data set [4] is Apo E-/-mice. The data set is described as follows: Intimal vessels in aortic sinus plaques by immunohistochemistry (CD31, vWf). Type of data set: in vivo. Particulars: for Neovascularization (+) aortic sinus plaques (number): of 22 (endostatin) and 27 (TNP-470) plaques, control 7 of 24; for Percentage of aortic sinus plaques that contained any intimal vessels: treated mice, control 29%. As for the experimental part: To detect intimal capillaries, the hearts and portions of the descending aorta with substantial lesions were embedded in paraffin, sectioned (10 μm), digested with 0.02% protease XXIV (Sigma) for 6 minutes at room temperature, and incubated with rabbit polyclonal anti-human vWf antibody (Dako, Carpinteria, Calif., 1:500 dilution) or rat monoclonal anti-mouse CD31 antibody (Pharmigen, San Diego, Calif., 20 Tg/ml). When acetone-fixed frozen sections were stained, the CD31 antibody was used at 5 Tg/ml. The bound antibodies against vWf or CD31 were detected with biotinylated goat anti-rabbit or rabbit anti-rat (mouse absorbed) antibodies (Vector, Burlinghame, Calif., 1:250 dilution) and the avidin-biotin peroxidase complex (ABC standard kit, Vector). A red reaction product was produced with 3-amino-9-ethyl carbazole substrate (AEC, Dako) and sections were counterstained with Gill's hematoxylin (Sigma). Vascular sections incubated with non-immune serum served as negative controls. Positive staining of the endothelium on the lumen and in adventitial capillaries served as an internal control. Intimal vessels were identified under high power (400×) and counted when both an endothelial cell nucleus and lumen were seen and when the vessel was also observed in an adjacent section.
as §4

Data set [5] has as its system Apo E-/-mice. The data set is described as follows: Intimal smooth muscle cell content of aortic sinus lesions. It counts as in vivo. The following applies: median (range), control 20.4. As for the experimental part: Smooth muscle cells were identified with a monoclonal IgG2a antibody against human smooth muscle cell I actin (Dako, M0851; Nakashima, Y., et al, Arteriocler. Thromb. 14: 133-40, 1994). Sections were immersed in 0.1 M sodium citrate, pH 6.0 and heated for 10 minutes in the microwave. Primary antibody was bound to sections at 3 Tg/ml and then visualized with biotinylated anti-mouse IgG2a antibody (1:200 dilution, Amersham RPN1181) and the ABC method described above. The adjacent medial layer of vessels served as positive control.
Intimal smooth muscle cell content. To determine if angiogenesis inhibitor treatments affected smooth muscle cell migration or proliferation in lesions, two slides from the middle of the aortic sinus were stained for smooth muscle cell α actin. For each animal, the number of intimal smooth muscle cells and total cell nuclei were counted in 8 non-overlapping fields. A smooth muscle cell was counted only if it stained for smooth muscle cell α actin and its cell nucleus was seen. The mean percentage of smooth muscle cells relative to total cells was determined for each animal.

The subject of data set [6] is Apo E-/-mice. Kind of data set: Plaque cell density of aortic sinus lesions. Type of data set: in vivo. Particulars: aortic sinus plaques, median (range), control 1183. As to the method: Plaque cell density. Cell densities in aortic sinus plaques were evaluated to determine if endostatin or TNP-470 treatments affected lesion cellularity. Cell nuclei in the intima of the aortic sinus plaques were counted at three mid-lesion levels (slides 4, 6, and 8). Cell density was reported as the number of cells per intimal area (cells/mm^2).

Another data set concerns primary tumor growth. Particulars: 20 mg/kg per day s.c.; Boehm 1997; cited from earlier work.
The next data set concerns angiogenesis. Particulars: corneal micropocket assay; Ingber 1990; cited from earlier work.
[7] abbreviates: first experiment, treated age 20 to 36 weeks, endostatin 20 mg/kg s.c. daily, TNP-470 30 mg/kg s.c. every other day, control 0.751, baseline 0.250.
[8] abbreviates: late-stage experiment, treated age 32 to 48 weeks, control 0.584.
Where [9] appears, read: second experiment, treated 20 to 36 weeks, control 0.690.

For the substance endostatin, the “Plaque measurements at the aortic origin versus control” value in the data set on Apo E-/-mice [1] was “no difference”. Further, the “Inhibition of plaque growth” value in the data set with Apo E-/-mice [1] (first experiment) worked out at 85%. In addition, the entries for the “Median plaque area at the aortic origin” value in the data set on Apo E-/-mice [1] (setting [7]), in the data set with Apo E-/-mice [1] (setting [8]) and with Apo E-/-mice [1] (setting [9]) were 0.321 mm^2, 0.422 mm^2 and 0.475 mm^2, respectively. Besides, in data set [2] (20 mg/kg s.c. every day), the Tolerability of injections result is given as “tolerated the injections”. For the same substance, the “Percentage of animals available for analysis” value in data set [2] (mouse, in vivo) came to 92%. Further, in the data set on Apo E-/-mice [3], the “Median percent plaque area of the entire aorta (Sudan IV-positive lesions)” value was found to be 9.6%. The “Plaque surface area on photographed images of the entire aorta” value in the data set with Apo E-/-mice [3] is “noticeable reduction”. In addition, in the data set on Apo E-/-mice [4], the “Neovascularization (+) aortic sinus plaques (number)” value is on record as 1. In addition, the “Percentage of aortic sinus plaques that contained any intimal vessels” value in the data set on Apo E-/-mice [4] is given as 5%. Also, the results for the “SMC (%), median smooth muscle cell content of aortic sinus lesions” value in the data set on Apo E-/-mice [5] and in the data set on Apo E-/-mice [5] (listed as Endostatin) were 19.4% and 19.4 (16.2-22.7) %, respectively. For the same substance, the “Cell Density, median” value with Apo E-/-mice [6] was 1645 cells/mm^2; in the data set on Apo E-/-mice [6] (listed as Endostatin), 1646 (962-2361) cells/mm^2. For the same substance, the “Inhibition of primary tumor growth” value in the data set with primary tumor growth was “over 95%”.

Turning to “O-chloracetyl-carbamoylfumagillol [TNP-470]”, in the data set on Apo E-/-mice [1], the “Plaque measurements at the aortic origin versus control” value is given as “no difference”. In addition, the “Inhibition of plaque growth” value in the data set on Apo E-/-mice [1] (first experiment) is 70%. In addition, the “Median plaque area at the aortic origin” value in the data set on Apo E-/-mice [1] (setting [7]) turned out to be 0.402 mm^2. Besides, the “Median plaque area at the aortic origin” value in the data set with Apo E-/-mice [1] (setting [8]) came to 0.448 mm^2. In addition, the “Median plaque area at the aortic origin” value in the data set on Apo E-/-mice [1] (setting [9]) is 0.370 mm^2. Moreover, the “Percentage of animals available for analysis” value in data set [2] (all studies, control 91%) amounted to 89%. Moreover, in data set [2] (treated age 20 to 36 weeks, control 8 g), the “Weight gained during treatment” value turned out to be 4 g. For the same substance, in data set [2] (treated age 20 to 36 weeks, control 35 g), the “Median weight after treatment” value was found to be 31 g. In addition, in data set [2] (treated age 32 to 48 weeks, control 35 g), the Final weight was found to be 33 g. For the same substance, in the data set with Apo E-/-mice [3], the “Median percent plaque area of the entire aorta (Sudan IV-positive lesions)” value was 11.7% and the “Plaque surface area on photographed images of the entire aorta” value is recorded as “noticeable reduction”. In addition, in the data set on Apo E-/-mice [4], the “Neovascularization (+) aortic sinus plaques (number)” value amounted to 0 and the “Percentage of aortic sinus plaques that contained any intimal vessels” value came to 0%. Further, the “SMC (%), median smooth muscle cell content of aortic sinus lesions” value in the data set on Apo E-/-mice [5] is listed as 19.8 (14.6-23.5) %. In addition, the Inhibition of angiogenesis with angiogenesis was 70%.
